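Interpolation was linear, between the two tested concentrations surrounding the appropriate level; five concentrations were tested over 48 hours in 96-well plates. GI50: concentration for 50% inhibition of growth.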 Active and inactive are the calls of the source. Cut-off read from the data, not from the text of the source: active = GI50 up to about 1.1 µM and inactive = higher.
Tests used:
Assay in all cases: NCI tumour cell line growth inhibition, 48 h
786-0 = system: 786-0
A498 = system: A498
A549 = system: A549
ACHN = system: ACHN
BT-549 = system: BT-549
CAKI-1 = system: CAKI-1
CCRF-CEM = system: CCRF-CEM
COLO 205 = system: COLO 205
DU-145 = system: DU-145
EKVX = system: EKVX
HCC 2998 = system: HCC 2998
HCT-116 = system: HCT-116
HCT-15 = system: HCT-15
HL-60 = system: HL-60
HOP-62 = system: HOP-62
HOP-92 = system: HOP-92
HT-29 = system: HT-29
Hs-578T = system: Hs-578T
IGROV-1 = system: IGROV-1
K562 = system: K562
KM12 = system: KM12
LOX IMVI = system: LOX IMVI
M14 = system: M14
MCF7 = system: MCF7
MDA-MB-231 = system: MDA-MB-231
MDA-MB-435 = system: MDA-MB-435
MDA-N = system: MDA-N
MOLT-4 = system: MOLT-4
Malme-3M = system: Malme-3M
NCI-H226 = system: NCI-H226
NCI-H23 = system: NCI-H23
NCI-H460 = system: NCI-H460
NCI-H522 = system: NCI-H522
NCI/ADR-RES = system: NCI/ADR-RES
OVCAR-3 = system: OVCAR-3
OVCAR-4 = system: OVCAR-4
OVCAR-5 = system: OVCAR-5
OVCAR-8 = system: OVCAR-8
PC-3 = system: PC-3
RPMI-8226 = system: RPMI-8226
RXF 393 = system: RXF 393
SF-268 = system: SF-268
SF-295 = system: SF-295
SF-539 = system: SF-539
SK-MEL-28 = system: SK-MEL-28
SK-MEL-2 = system: SK-MEL-2
SK-MEL-5 = system: SK-MEL-5
SN12C = system: SN12C
SNB-19 = system: SNB-19
SNB-75 = system: SNB-75
SR = system: SR
SW-620 = system: SW-620
T47D = system: T47D
TK-10 = system: TK-10
U-251 = system: U-251
UACC-257 = system: UACC-257
UACC-62 = system: UACC-62
UO-31 = system: UO-31

SMILES: CN1CCN(c2cc3nc4cc(O)cc(O)c4c(O)c3cc2N)CC1
- GI50 (786-0): 38.7 µM (inactive)
- GI50 (A498): 21.6 µM (inactive)
- GI50 (A549): 61 µM (inactive)
- GI50 (ACHN): 27.5 µM (inactive)
- GI50 (BT-549): 28.6 µM (inactive)
- GI50 (CAKI-1): 23.3 µM (inactive)
- GI50 (CCRF-CEM): 13.4 µM (inactive)
- GI50 (COLO 205): 14 µM (inactive)
- GI50 (DU-145): 46.5 µM (inactive)
- GI50 (EKVX): 19.4 µM (inactive)
- GI50 (HCC 2998): 16.2 µM (inactive)
- GI50 (HCT-116): 35.8 µM (inactive)
- GI50 (HCT-15): 67 µM
- GI50 (HL-60): 20.1 µM (inactive)
- GI50 (HOP-62): 33.6 µM (inactive)
- GI50 (HOP-92): 10.6 µM (inactive)
- GI50 (HT-29): 23.2 µM (inactive)
- GI50 (Hs-578T): 29.7 µM (inactive)
- GI50 (IGROV-1): 20.2 µM (inactive)
- GI50 (K562): 14.5 µM (inactive)
- GI50 (KM12): 27.4 µM (inactive)
- GI50 (LOX IMVI): 16.2 µM (inactive)
- GI50 (M14): 37.1 µM (inactive)
- GI50 (MCF7): 17.7 µM (inactive)
- GI50 (MDA-MB-231): 1.53 µM (inactive)
- GI50 (MDA-MB-435): 18.1 µM (inactive)
- GI50 (MDA-N): 23.4 µM (inactive)
- GI50 (MOLT-4): 0.33 µM (active)
- GI50 (Malme-3M): 24.6 µM (inactive)
- GI50 (NCI-H226): 1.95 µM (inactive)
- GI50 (NCI-H23): 40.6 µM (inactive)
- GI50 (NCI-H460): 36.3 µM (inactive)
- GI50 (NCI-H522): 19.5 µM (inactive)
- GI50 (NCI/ADR-RES): 57.5 µM (inactive)
- GI50 (OVCAR-3): 20.7 µM (inactive)
- GI50 (OVCAR-4): 27.4 µM (inactive)
- GI50 (OVCAR-5): 23.9 µM (inactive)
- GI50 (OVCAR-8): 26.2 µM (inactive)
- GI50 (PC-3): 18.1 µM (inactive)
- GI50 (RPMI-8226): 20.8 µM (inactive)
- GI50 (RXF 393): 20.7 µM (inactive)
- GI50 (SF-268): 15.9 µM (inactive)
- GI50 (SF-295): 32.7 µM (inactive)
- GI50 (SF-539): 0.608 µM (active)
- GI50 (SK-MEL-28): 27.2 µM (inactive)
- GI50 (SK-MEL-2): 19.4 µM (inactive)
- GI50 (SK-MEL-5): 18.5 µM (inactive)
- GI50 (SN12C): 1.5 µM (inactive)
- GI50 (SNB-19): 37.1 µM (inactive)
- GI50 (SNB-75): 18.2 µM (inactive)
- GI50 (SR): 6.14 µM (inactive)
- GI50 (SW-620): 21.9 µM (inactive)
- GI50 (T47D): 21.6 µM (inactive)
- GI50 (TK-10): 30.7 µM (inactive)
- GI50 (U-251): 17.6 µM (inactive)
- GI50 (UACC-257): 38.8 µM (inactive)
- GI50 (UACC-62): 1.57 µM (inactive)
- GI50 (UO-31): 19.7 µM (inactive)

SMILES: O=c1[nH]nc(Cc2ccccc2)n1/N=C/c1ccncc1
- GI50 (786-0): > 100 µM (inactive)
- GI50 (A498): 39 µM (inactive)
- GI50 (A549): > 100 µM (inactive)
- GI50 (ACHN): > 100 µM (inactive)
- GI50 (BT-549): 68.9 µM (inactive)
- GI50 (CAKI-1): 42.2 µM (inactive)
- GI50 (CCRF-CEM): > 100 µM (inactive)
- GI50 (COLO 205): > 100 µM (inactive)
- GI50 (DU-145): > 100 µM (inactive)
- GI50 (EKVX): > 100 µM (inactive)
- GI50 (HCC 2998): > 100 µM (inactive)
- GI50 (HCT-116): > 100 µM (inactive)
- GI50 (HCT-15): > 100 µM
- GI50 (HL-60): > 100 µM (inactive)
- GI50 (HOP-62): 48.2 µM (inactive)
- GI50 (HOP-92): > 100 µM (inactive)
- GI50 (HT-29): > 100 µM (inactive)
- GI50 (Hs-578T): 82.2 µM (inactive)
- GI50 (IGROV-1): > 100 µM (inactive)
- GI50 (K562): > 100 µM (inactive)
- GI50 (KM12): > 100 µM (inactive)
- GI50 (LOX IMVI): > 100 µM (inactive)
- GI50 (M14): > 100 µM (inactive)
- GI50 (MCF7): > 100 µM (inactive)
- GI50 (MDA-MB-231): > 100 µM (inactive)
- GI50 (MDA-MB-435): > 100 µM (inactive)
- GI50 (MDA-N): > 100 µM (inactive)
- GI50 (MOLT-4): > 100 µM (inactive)
- GI50 (Malme-3M): > 100 µM (inactive)
- GI50 (NCI-H226): > 100 µM (inactive)
- GI50 (NCI-H23): > 100 µM (inactive)
- GI50 (NCI-H460): > 100 µM (inactive)
- GI50 (NCI-H522): > 100 µM (inactive)
- GI50 (NCI/ADR-RES): > 100 µM (inactive)
- GI50 (OVCAR-3): > 100 µM (inactive)
- GI50 (OVCAR-4): > 100 µM (inactive)
- GI50 (OVCAR-5): > 100 µM (inactive)
- GI50 (OVCAR-8): > 100 µM (inactive)
- GI50 (PC-3): > 100 µM (inactive)
- GI50 (RPMI-8226): > 100 µM (inactive)
- GI50 (RXF 393): > 100 µM (inactive)
- GI50 (SF-268): > 100 µM (inactive)
- GI50 (SF-295): > 100 µM (inactive)
- GI50 (SF-539): > 100 µM (inactive)
- GI50 (SK-MEL-28): > 100 µM (inactive)
- GI50 (SK-MEL-5): 64.4 µM (inactive)
- GI50 (SN12C): > 100 µM (inactive)
- GI50 (SNB-19): > 100 µM (inactive)
- GI50 (SNB-75): > 100 µM (inactive)
- GI50 (SR): > 100 µM (inactive)
- GI50 (SW-620): > 100 µM (inactive)
- GI50 (T47D): > 100 µM (inactive)
- GI50 (TK-10): > 100 µM (inactive)
- GI50 (U-251): > 100 µM (inactive)
- GI50 (UACC-257): > 100 µM (inactive)
- GI50 (UO-31): > 100 µM (inactive)
